# Results as given in publication PMC7044129, “Spexin and a Novel Cichlid-Specific Spexin Paralog Both Inhibit FSH and LH Through a Specific Galanin Receptor (Galr2b) in Tilapia” (Frontiers in Endocrinology, 2020).
# No end group written: not given here.
# Legend:
# [1] = system: Spx1 levels and expression; details: cited from earlier work
# Text: (§1) Spexin plays a role in feeding behavior and metabolism in fish and mammals [reviewed in ([3])]. In the orange-spotted grouper ([11]), half-smooth tongue sole ([46]), and spotted scat ([46]), starvation increased Spx1 expression. […] This effect was also observe ...
# [2] = system: hypothalamic spexin expression; details: ovariectomized goldfish, estrogen replacement; cited from earlier work
# Text: (§2) Spexin has been implicated in regulating the hypothalamic-pituitary-gonad (HPG) axis in some fish species. […] The first report on fish spexin in zebrafish and goldfish identified high and dynamic expression in the brain throughout the reproductive stages ([10]). […] Ovariectomized goldfish had increased hypothalamic spexin e ...
# tilapia Galr2a = tilapia Galr2a (Oreochromis niloticus, UniProt A0A650AWG9); type: cell-based, Nile tilapia (Oreochromis niloticus); details: Gqi pathway (chimeric Gqi5 with SRE-luc, Gαi readout), COS7 cells, 6 h stimulation after 16 h serum starvation, mean ± SEM, minimum three independent transfections, triplicate wells
# Experimental: (§3) EC50 values were calculated from dose response curves by means of computerized non-linear curve fitting on baseline-corrected (control) values using Prism version 6 software (GraphPad).
# spexin expression = details: spotted scat, in vitro; cited from earlier work
# Text: as §2
# [3] = system: Tilapia D2 dopamine receptor; details: COS7 cells, SRE-Luc and Gqi5
# Experimental: as §3
# (1 picture or pasted object on this page, not shown here)
# [4] = system: GnIH, GnRH-III, GpHα and FSHβ expression; details: sole; cited from earlier work
# Text: Spexin mRNA expression levels may also be correlated with reproductive development. Increases in LH and FSH mRNA expression is seasonal and corresponds to gonadal development ([50], [51]).
# GALR2 [5] = details: cited from earlier work
# Text: (§4) The galanergic neurotransmission system is one of the newest described signaling systems. […] Three different types of galanin receptors have been described so far in mammals: galanin receptor 1, 2, and 3 (GALR1, GALR2, and GALR3) ([14]). All of them are members of the G protein-coupled receptor (GPCR) family and act through stimulation of various seco ...
# GALR3 = details: cited from earlier work
# Text: as §4
# Galr2a = details: cited from earlier work
# Text: as §4
# Galr2b = details: cited from earlier work
# Text: as §4
# adrenocortical cell = details: mammals; cited from earlier work
# Text: (§5) Spexin (SPX1; also termed neuropeptide Q) was identified first by computational methods in humans ([1]), and then also by chemical methods in goldfish ([2]). These computational methods have been attempted mostly on the basis of the characteristics of the prohormones from which active neuropeptides are processed. The mature peptide sequence contains 14 amino acids that are flanked by monobasic and dibasic proteolytic cleavage sites. […] A paralog o ...
# stomach contraction = details: mammals; cited from earlier work
# Text: as §5
# GalR2 [6] = details: cited from earlier work
# Text: Spexin mediates its effects by activating an inhibitory G-protein (Gαi) via galanin receptor (GalR) 2/3. Like the kisspeptin, galanin, and spexin peptides, the kisspeptin and galanin receptors are related. Ancestral forms of KissR, GalR1, and GalR2/3 were identified on different VACs with 1R and 2R expanding each clade, giving rise to four KissR (KissR1, 3, 2, 4), two GalR1 (1a, 1b), two GalR2 (2a, 2b) and GalR3 paralogs ([15]). Our phylogenetic analysis supports that of Kim et al. ([15]), showing that GalRs are divided into two major clades, namely GalR1 and GalR2/3, with KissRs forming a dis ...
# [7] = system: appetite stimulants and anorexigenic factors in the brain; details: goldfish brain, central administration, cited from earlier work
# Text: as §1
# [8] = system: agouti-related peptide (AgRP) expression; details: zebrafish; cited from earlier work
# Text: as §1
# goldfish = details: injection; cited from earlier work
# Text: as §1
# [9] = system: feeding behavior induced by NPY and orexin; details: intracerebroventricular injection; no reference printed at the sentence (preceding sentence ref 2); cited from earlier work
# Text: as §1
# [10] = system: goldfish pituitary cultures; details: cited from earlier work
# Text: as §2
# LH release = details: goldfish; cited from earlier work
# Text: as §2
# Sequence of tilapia Galr2a (A0A650AWG9 entry or part of it): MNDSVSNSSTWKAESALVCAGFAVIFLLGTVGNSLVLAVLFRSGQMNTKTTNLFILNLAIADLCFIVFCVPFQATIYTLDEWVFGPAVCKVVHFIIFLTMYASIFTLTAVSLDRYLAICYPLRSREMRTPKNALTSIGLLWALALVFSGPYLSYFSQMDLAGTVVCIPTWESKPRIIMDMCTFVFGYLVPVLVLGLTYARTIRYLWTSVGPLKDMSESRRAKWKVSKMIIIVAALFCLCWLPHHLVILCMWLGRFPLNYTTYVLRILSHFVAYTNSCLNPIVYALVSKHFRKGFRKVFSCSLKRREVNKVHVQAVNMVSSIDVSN
molecule,measurement,setting,value
insulin: insulin (cited study on spexin regulation),circulating Spx1 and brain Spx1 expression,[1],"increase circulating levels of Spx1 and its expression in the telencephalon, hypothalamus, and optic tectum"
estrogen,hypothalamic spexin expression,[2],returned expression to basal levels
GWTLNSAGYLLGPHAVGNHRSFSNKNGLTS-NH2 [Galanin],EC50,tilapia Galr2a,0.0001 ± 5.6 log nM
C[C@]12CC[C@@H]3c4ccc(O)cc4CC[C@H]3[C@@H]1CC[C@@H]2O [estradiol],spexin expression,spexin expression,decreased spexin expression in a dose-dependent manner in vitro
NCCc1ccc(O)c(O)c1 [dopamine],luciferase activity via tilapia D2 receptor with Gqi5 (in words),[3],dose-dependent increase in luciferase activity
"Spexin: spexin of cited literature; 14 amino acid peptide hormone, species varies",GnIH and GnRH-III expression,[4],increasing gonadotropin inhibitory hormone (GnIH) and GnRH-III expression
same,GpHα and FSHβ expression,[4],decreasing GpHα and FSHβ expression
same,functional agonism at human GALR2,GALR2 [5],functional agonist
same,functional agonism at human GALR3,GALR3,functional agonist
same,functional agonism at zebrafish Galr2a,Galr2a,functional agonist
same,functional agonism at zebrafish Galr2b,Galr2b,functional agonist
same,adrenocortical cell proliferation,adrenocortical cell,inhibiting adrenocortical cell proliferation
same,stomach contraction,stomach contraction,inducing stomach contraction
same,dissociation / receptor internalization at GalR2,GalR2 [6],quickly dissociated after G-protein signaling
same,expression of anorexigenic factors,"[7]; POMC, CART, CCK, MCH, CRH",increased expression of anorexigenic factors
same,expression of appetite stimulants,[7],"decrease in expression of appetite stimulants (NPY, AgRP, and apelin)"
same,AgRP expression,[8],suppressed agouti-related peptide (AgRP) expression
same,feeding behavior,goldfish,decreased surface feeding and increased food rejection
same,NPY- and orexin-induced feeding,[9],inhibited feeding behavior induced by NPY and orexin
same,LH release in pituitary cultures,[10],inhibited LH release
same,LH release in vivo,LH release,inhibited LH release
